The values that follow are results of earlier work, collected in patent US8410049B2, “Methods and kits for preventing hypoglycemia” (Cebix, priority 2009, dated 2013).

For the data set the following is noted: in vivo; cited from earlier work.

On to Glulisine, for which the “Peak time of effect” value is on record as “around 30 minutes”.
As for Lispro, the “Peak time of effect” value is on record as “around 30 minutes”.
For the substance Lantus, the Duration of activity entry was “up to 24 hours”.
As to Regular insulin, the Onset of action is 30 to 60 min.
Glargine insulin: the Duration of activity was 24 h and the “Peak time of effect” value is listed as “no peak effect”.
Aspart: the “Peak time of effect” value was “around 30 minutes”.
